Test results from US8158628B2, “Sulfonylated 1,2,3,4-tetrahydropyrrolo[1,2-a]pyrazine compounds and their use as pharmaceuticals” (Gruenenthal GmbH, priority 2009, dated 2012).

Columns and labels:
B1R of the rat = target: T1, B1R of the rat (Rattus norvegicus, UniProt P97583); experiment: FLIPR Ca2+ functional assay, B1R antagonism, rat B1R in CHO K1 cells; assay type: cell-based; details: test substance 10 μM; rB1R CHO K1 cells; agonist Des-Arg9 bradykinin at EC80; % of maximum achievable inhibition
T1 construct: expressed in transfected cells; host or cells: CHO K1 cells (Chinese hamster ovary), stably transfected
T1 sequence (P97583 1-337): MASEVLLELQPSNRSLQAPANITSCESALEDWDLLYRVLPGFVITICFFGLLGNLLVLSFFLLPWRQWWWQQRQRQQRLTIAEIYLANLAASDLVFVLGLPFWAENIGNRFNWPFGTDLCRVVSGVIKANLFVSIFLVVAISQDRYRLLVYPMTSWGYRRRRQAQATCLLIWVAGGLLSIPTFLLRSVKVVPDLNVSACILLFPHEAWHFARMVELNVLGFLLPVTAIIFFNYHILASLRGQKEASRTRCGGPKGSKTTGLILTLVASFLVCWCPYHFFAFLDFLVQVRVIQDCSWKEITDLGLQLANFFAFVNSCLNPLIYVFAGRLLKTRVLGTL
Procedure, shortened: (§1)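 Stably transfected CHO K1 cells loaded with Fluo-4; Ca2+ fluorescence read on FLIPR (ex 488/em 540 nm). Compound preincubated 10-20 min, then agonist at EC80: Lys-Des-Arg9 bradykinin (human) or Des-Arg9 bradykinin (rat). % inhibition vs maximal inhibition; IC50 from concentration series, n=2-3, N>=2.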

human B1R = target: T2, human B1R (Homo sapiens, UniProt P46663); experiment: FLIPR Ca2+ functional assay, B1R antagonism, human B1R in CHO K1 cells; assay type: cell-based; details: test substance 10 μM; hB1R CHO K1 cells; agonist Lys-Des-Arg9 bradykinin at EC80; % of maximum achievable inhibition
T2 construct: expressed in transfected cells; host or cells: CHO K1 cells (Chinese hamster ovary), stably transfected
T2 sequence (P46663 1-353): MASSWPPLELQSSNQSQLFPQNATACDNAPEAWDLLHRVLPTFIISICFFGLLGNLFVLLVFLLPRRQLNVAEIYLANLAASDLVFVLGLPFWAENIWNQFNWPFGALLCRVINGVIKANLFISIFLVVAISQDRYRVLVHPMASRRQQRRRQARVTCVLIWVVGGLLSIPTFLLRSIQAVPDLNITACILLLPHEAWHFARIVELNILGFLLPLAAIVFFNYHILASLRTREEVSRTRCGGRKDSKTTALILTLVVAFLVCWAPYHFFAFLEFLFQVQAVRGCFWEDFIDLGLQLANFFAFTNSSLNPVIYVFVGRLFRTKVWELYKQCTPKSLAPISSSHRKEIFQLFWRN
Procedure, shortened: as §1

Row | SMILES | inhibition at 10 µM (B1R of the rat) [%] | inhibition at 10 µM (human B1R) [%]
1 | COc1ccc2cc(S(=O)(=O)N3CCn4cccc4C3CC(=O)NC3CCCc4cc(CN(C)C(C)(C)C)ccc43)ccc2c1 (stereo not shown) [Example 104, N-[6-[(tert-Butyl-methyl-amino)-methyl]-1,2,3,4-tetrahydro-naphthalen-1-yl]-2-[2-[(6-methoxy-naphthalen-2-yl)sulfonyl]-1,2,3,4-tetrahydro-pyrrolo[1,2-a]pyrazin-1-yl]-acetamide] | 103 | 99.9
2 | O=C(CC1c2cccn2CCN1S(=O)(=O)c1cccc(C(F)(F)F)c1)NC1CCc2cc(CN3C4CCCC3CC4)ccc2C1 (stereo not shown) [Example 88, N-[6-(8-Azabicyclo[3.2.1]octan-8-yl-methyl)-1,2,3,4-tetrahydro-naphthalen-2-yl]-2-[2-[[3-(trifluoromethyl)phenyl]sulfonyl]-1,2,3,4-tetrahydro-pyrrolo[1,2-a]pyrazin-1-yl]-acetamide] | 96.5 | 99.9
3 | COc1cc(C)c(S(=O)(=O)N2CCn3cccc3C2COCC(=O)N2CCC(c3ccncc3)CC2)c(C)c1 (stereo not shown) [Example 34, 2-[[2-[(4-Methoxy-2,6-dimethyl-phenyl)sulfonyl]-1,2,3,4-tetrahydro-pyrrolo[1,2-a]pyrazin-1-yl]-methoxy]-1-(4-pyridin-4-yl-piperidin-1-yl)-ethanone] | 103 | 99.2
4 | COc1cc(C)c(S(=O)(=O)N2CCn3cccc3C2COCC(=O)N(C)CCC2CCN(c3ccncc3)CC2)c(C)c1 (stereo not shown) [Example 7] | 102 | 99.9
5 | Cc1ccc(S(=O)(=O)N2CCn3cccc3C2CC(=O)NC2CCc3cc(CN4CCN(C)CC4)ccc3C2)cc1 (stereo not shown) [Example 81, N-[6-[(4-Methyl-piperazin-1-yl)-methyl]-1,2,3,4-tetrahydro-naphthalen-2-yl]-2-[2-(p-tolylsulfonyl)-1,2,3,4-tetrahydro-pyrrolo[1,2-a]pyrazin-1-yl]-acetamide] | 102 | 99.1
6 | CN(Cc1ccc2c(c1)CCCC2NC(=O)CC1c2cccn2CCN1S(=O)(=O)c1cccc(C(F)(F)F)c1)C(C)(C)C (stereo not shown) [Example 113, N-[6-[(tert-Butyl-methyl-amino)-methyl]-1,2,3,4-tetrahydro-naphthalen-1-yl]-2-[2-[[3-(trifluoromethyl)phenyl]sulfonyl]-1,2,3,4-tetrahydro-pyrrolo[1,2-a]pyrazin-1-yl]-acetamide] | 97.1 | 99.8
7 | Cc1ccc(S(=O)(=O)N2CCn3cccc3C2CC(=O)N[C@@H]2CCCc3cc(CNC(C)(C)C)ccc32)cc1 (stereo partly drawn) [Example 42, N-[(1R)-6-[(tert-Butylamino)-methyl]-1,2,3,4-tetrahydro-naphthalen-1-yl]-2-[2-(p-tolylsulfonyl)-1,2,3,4-tetrahydro-pyrrolo[1,2-a]pyrazin-1-yl]-acetamide] | 107 | 99.9
8 | O=C(CC1c2cccn2CCN1S(=O)(=O)c1cccc(Cl)c1Cl)NC1CCc2cc(CN3CCCCC3)ccc2C1 (stereo not shown) [Example 28, 2-(2-(2,3-dichlorophenylsulfonyl)-1,2,3,4-tetrahydropyrrolo[1,2-a]pyrazin-1-yl)-N-(6-(piperidin-1-ylmethyl)-1,2,3,4-tetrahydronaphthalen-2-yl)acetamide] | 100 | 99.5
9 | CNCc1ccc2c(c1)CCC(NC(=O)CC1c3cccn3CCN1S(=O)(=O)c1ccc3cc(OC)ccc3c1)C2 (stereo not shown) [Example 137, 2-[2-[(6-Methoxy-naphthalen-2-yl)sulfonyl]-1,2,3,4-tetrahydro-pyrrolo[1,2-a]pyrazin-1-yl]-N-[6-(methylamino-methyl)-1,2,3,4-tetrahydro-naphthalen-2-yl]-acetamide] | 104 | 99.7
10 | O=C(CC1c2cccn2CCN1S(=O)(=O)c1cccc(C(F)(F)F)c1)NC1CCc2cc(CN3CCOCC3)ccc2C1 (stereo not shown) [Example 67, N-[6-(Morpholin-4-yl-methyl)-1,2,3,4-tetrahydro-naphthalen-2-yl]-2-[2-[[3-(trifluoromethyl)phenyl]sulfonyl]-1,2,3,4-tetrahydro-pyrrolo[1,2-a]pyrazin-1-yl]-acetamide] | 101 | 99.7
11 | Cc1ccc(S(=O)(=O)N2CCn3cccc3C2CC(=O)NC2CCc3cc(CN4CCCCC4)ccc3C2)cc1Cl (stereo not shown) [Example 50, 2-[2-[(3-Chloro-4-methyl-phenyl)sulfonyl]-1,2,3,4-tetrahydro-pyrrolo[1,2-a]pyrazin-1-yl]-N-[6-(piperidin-1-yl-methyl)-1,2,3,4-tetrahydro-naphthalen-2-yl]-acetamide] | 99.5 | 99.7
12 | O=C(CC1c2cccn2CCN1S(=O)(=O)c1cccc(Cl)c1)NC1CCc2cc(CN3CCCCC3)ccc2C1 (stereo not shown) [Example 47, 2-(2-(3-chlorophenylsulfonyl)-1,2,3,4-tetrahydropyrrolo[1,2-a]-pyrazin-1-yl)-N-(6-(piperidin-1-ylmethyl)-1,2,3,4-tetrahydronaphthalen-2-yl)-acetamide] | 106 | 99.9
13 | Cc1ccc(S(=O)(=O)N2CCn3cccc3C2CC(=O)NC2CCc3cc(CN4CCOCC4)ccc3C2)cc1 (stereo not shown) [Example 87, N-[6-(Morpholin-4-yl-methyl)-1,2,3,4-tetrahydro-naphthalen-2-yl]-2-[2-(p-tolylsulfonyl)-1,2,3,4-tetrahydro-pyrrolo[1,2-a]pyrazin-1-yl]-acetamide] | 102 | 99.4
14 | O=C(CC1c2cccn2CCN1S(=O)(=O)c1ccccc1)NC1CCc2cc(CN3CCCCC3)ccc2C1 (stereo not shown) [Example 27, 2-(2-(phenylsulfonyl)-1,2,3,4-tetrahydropyrrolo[1,2-a]pyrazin-1-yl)-N-(6-(piperidin-1-ylmethyl)-1,2,3,4-tetrahydronaphthalen-2-yl)acetamide] | 102 | 100
15 | CCC(C)NCc1ccc2c(c1)CCCC2NC(=O)CC1c2cccn2CCN1S(=O)(=O)c1cccc(C(F)(F)F)c1 (stereo not shown) [Example 131, N-[6-[(1-Methyl-propylamino)-methyl]-1,2,3,4-tetrahydro-naphthalen-1-yl]-2-[2-[[3-(trifluoromethyl)phenyl]sulfonyl]-1,2,3,4-tetrahydro-pyrrolo[1,2-a]pyrazin-1-yl]-acetamide] | 101 | 99.8
16 | Cc1ccc(S(=O)(=O)N2CCn3cccc3C2CC(=O)NC2CCCc3cc(CN4CCCCC4)ccc32)cc1Cl (stereo not shown) [Example 56, 2-[2-[(3-Chloro-4-methyl-phenyl)sulfonyl]-1,2,3,4-tetrahydro-pyrrolo[1,2-a]pyrazin-1-yl]-N-[6-(piperidin-1-yl-methyl)-1,2,3,4-tetrahydro-naphthalen-1-yl]-acetamide] | 98 | 99.7
17 | CNCc1ccc2c(c1)CCCC2NC(=O)CC1c2cccn2CCN1S(=O)(=O)c1ccc(C)c(Cl)c1 (stereo not shown) [Example 136, 2-[2-[(3-Chloro-4-methyl-phenyl)sulfonyl]-1,2,3,4-tetrahydro-pyrrolo[1,2-a]pyrazin-1-yl]-N-[6-(methylamino-methyl)-1,2,3,4-tetrahydro-naphthalen-1-yl]-acetamide] | -29.2 | 99.7
18 | COc1ccc2cc(S(=O)(=O)N3CCn4cccc4C3CC(=O)NCCc3ccc(C4=NCCN4)cc3)ccc2c1 (stereo not shown) [Example 41, N-[2-[4-(4,5-Dihydro-1H-imidazol-2-yl)-phenyl]-ethyl]-2-[2-[(6-methoxy-naphthalen-2-yl)sulfonyl]-1,2,3,4-tetrahydro-pyrrolo[1,2-a]pyrazin-1-yl]-acetamide] | 103 | 100
19 | COc1ccc2cc(S(=O)(=O)N3CCn4cccc4C3CC(=O)NC3CCCc4cc(CNC(C)(C)C)ccc43)ccc2c1 (stereo not shown) [Example 114, N-[6-[(tert-Butylamino)-methyl]-1,2,3,4-tetrahydro-naphthalen-1-yl]-2-[2-[(6-methoxy-naphthalen-2-yl)sulfonyl]-1,2,3,4-tetrahydro-pyrrolo[1,2-a]pyrazin-1-yl]-acetamide] | 99.6 | 100
20 | CN1CCN(Cc2ccc3c(c2)CCCC3NC(=O)CC2c3cccn3CCN2S(=O)(=O)c2cccc(C(F)(F)F)c2)CC1 (stereo not shown) [Example 59, N-[6-[(4-Methyl-piperazin-1-yl)-methyl]-1,2,3,4-tetrahydro-naphthalen-1-yl]-2-[2-[[3-(trifluoromethyl)phenyl]sulfonyl]-1,2,3,4-tetrahydro-pyrrolo[1,2-a]pyrazin-1-yl]-acetamide] | 76.2 | 99.8
